Here are results for 18 compounds from US20210238225A1, “PEPTIDOMIMETIC INHIBITORS OF THE PEPTIDYL-PROLYL CIS/TRANS ISOMERASE (PIN1)” (DANA-FARBER CANCER INSTITUTE, INC., priority 2018, published 2021).

Each structure is given as a SMILES string. Read-outs that look alike come from different tables or passages of the source. Non-standard residues stand in square brackets, D forms with d. Residues, ends and D or L forms follow the SMILES beside them. *: point of attachment. Ala(9-anthryl) = N[C@@H](Cc1c2ccccc2cc2ccccc12)C(=O)O; Phe(4-tBu) = CC(C)(C)c1ccc(C[C@H](N)C(=O)O)cc1; Bip = N[C@@H](Cc1ccc(-c2ccccc2)cc1)C(=O)O; Dip = N[C@H](C(=O)O)C(c1ccccc1)c1ccccc1; 2Nal = N[C@@H](Cc1ccc2ccccc2c1)C(=O)O; X2 = C[C@H]1NC(=O)N[C@H]1CCCCCC(=O)*; Bta = N[C@@H](Cc1csc2ccccc12)C(=O)O; β3hF = N[C@H](CC(=O)O)Cc1ccccc1; Cit = NC(=O)NCCC[C@H](N)C(=O)O; Pip = O=C(O)[C@@H]1CCCCN1; βNA = c1ccc2cc(N*)ccc2c1; Fluoroacetyl = O=C(CF)*; X5 = Cc1ccc(CN(C)*)cc1; Acryloyl = C=CC(=O)*; ClAc = O=C(CCl)*; X1 = O=C(C1CO1)* A value given as a limit tells only on which side of the number the result lay.

By Ki is commonly meant the dissociation constant of the complex between target and ligand, obtained from inhibition or displacement.

The target in the test is Pin1 (GST-Pin1) (Homo sapiens, UniProt Q13526). The test can be described thus: Fluorescence polarization (FP) assay, binding to Pin1. Particulars: competition with fluorescein-labeled peptide probe, 12 hours pre-incubation at 4° C., Kenakin Ki equation. Background: Fluorescence polarisation rises when a labelled molecule tumbles more slowly, as on binding a larger partner.
Chain of Pin1 (GST-Pin1) (Q13526 whole entry): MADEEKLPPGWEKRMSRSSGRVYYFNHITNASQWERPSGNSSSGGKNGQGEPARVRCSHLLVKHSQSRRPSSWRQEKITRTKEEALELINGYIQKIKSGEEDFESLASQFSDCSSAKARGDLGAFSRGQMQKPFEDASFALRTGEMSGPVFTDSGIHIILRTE

On to `NC(=O)[C@H](Cc1c[nH]cn1)NC(=O)[C@H](Cc1ccc2ccccc2c1)NC(=O)[C@@H]1CCCCN1C(=O)[C@H](CCC(=O)O)NC(=O)CCl` [Compound 2b-7, (S)-5-((S)-2-(((S)-1-(((S)-1-Amino-3-(1H-imidazol-4-yl)-1-oxopropan-2-yl)amino)-3-(naphthalen-2-yl)-1-oxopropan-2-yl)carbamoyl)piperidin-1-yl)-4-(2-chloroacetamido)-5-oxopentanoic acid] (ClAc-E[Pip][2Nal]H-NH2), for which the Ki (read-out: Ki, μM (FP Assay)) stood at 4.02 µM.
The same measure, in the same setting: the result for `NC(=O)CC[C@H](NC(=O)[C@H](Cc1csc2ccccc12)NC(=O)[C@@H]1CCCCN1C(=O)[C@H](CCC(=O)O)NC(=O)CCl)C(N)=O` [Compound 2b-8, (S)-5-((S)-2-(((S)-3-(Benzo[6]thiophen-3-yl)-1-(((S)-1,5-diamino-1,5-dioxopentan-2-yl)amino)-1-oxopropan-2-yl)carbamoyl)piperidin-1-yl)-4-(2-chloroacetamido)-5-oxopentanoic acid] (ClAc-E[Pip][Bta]Q-NH2) reads 2.83 µM; that for `N=C(N)NCCC[C@H](NC(=O)[C@H](Cc1ccc(-c2ccccc2)cc1)NC(=O)[C@@H]1CCCCN1C(=O)[C@H](CCC(=O)O)NC(=O)CCl)C(N)=O` [Compound 2b-9, (S)-5-((S)-2-(((S)-3-([1,1′-Biphenyl]-4-yl)-1-(((S)-1-amino-5-guanidino-1-oxopentan-2-yl)amino)-1-oxopropan-2-yl)carbamoyl)piperidin-1-yl)-4-(2-chloroacetamido)-5-oxopentanoic acid] (ClAc-E[Pip][Bip]R-NH2), 0.19 µM; that for `N=C(N)NCCC[C@H](NC(=O)[C@@H](NC(=O)[C@@H]1CCCCN1C(=O)[C@H](CCC(=O)O)NC(=O)CCl)C(c1ccccc1)c1ccccc1)C(N)=O` [Compound 2b-10, (S)-5-((S)-2-(((S)-1-(((S)-1-Amino-5-guanidino-1-oxopentan-2-yl)amino)-1-oxo-3,3-diphenylpropan-2-yl)carbamoyl)piperidin-1-yl)-4-(2-chloroacetamido)-5-oxopentanoic acid] (ClAc-E[Pip][Dip]R-NH2), 0.85 µM.
On the same count and under the same terms, the result for `N=C(N)NCCC[C@H](NC(=O)[C@H](Cc1c2ccccc2cc2ccccc12)NC(=O)[C@@H]1CCCCN1C(=O)[C@H](CCC(=O)O)NC(=O)CCl)C(N)=O` [Compound 2b-11, (S)-5-((S)-2-(((S)-1-(((S)-1-Amino-5-guanidino-1-oxopentan-2-yl)amino)-3-(anthracen-9-yl)-1-oxopropan-2-yl)carbamoyl)piperidin-1-yl)-4-(2-chloroacetamido)-5-oxopentanoic acid] (ClAc-E[Pip][Ala(9-anthryl)]R-NH2) reads 0.609 µM; that for `NC(=O)[C@H](CO)NC(=O)[C@H](Cc1ccc2ccccc2c1)NC(=O)[C@@H]1CCCCN1C(=O)[C@H](CCC(=O)O)NC(=O)CCl` [Compound 2b-12, (S)-5-((S)-2-(((S)-1-(((S)-1-Amino-3-hydroxy-1-oxopropan-2-yl)amino)-3-(naphthalen-2-yl)-1-oxopropan-2-yl)carbamoyl)piperidin-1-yl)-4-(2-chloroacetamido)-5-oxopentanoic acid] (ClAc-E[Pip][2Nal]S-NH2), 0.23 µM; that for `CC(C)(C)c1ccc(C[C@H](NC(=O)[C@@H]2CCCCN2C(=O)[C@H](CCC(=O)O)NC(=O)CCl)C(=O)N[C@@H](CCCNC(=N)N)C(N)=O)cc1` [Compound 2b-14, (S)-5-((S)-2-(((S)-1-(((S)-1-Amino-5-guanidino-1-oxopentan-2-yl)amino)-3-(4-(tert-butyl)phenyl)-1-oxopropan-2-yl)carbamoyl)piperidin-1-yl)-4-(2-chloroacetamido)-5-oxopentanoic acid] (ClAc-E[Pip][Phe(4-tBu)]R-NH2), 0.19 µM.
Turning to `N=C(N)NCCC[C@H](NC(=O)C[C@H](Cc1ccccc1)NC(=O)[C@@H]1CCCCN1C(=O)[C@H](CCC(=O)O)NC(=O)CCl)C(N)=O` [Compound 2b-15, (S)-5-((S)-2-(((S)-4-(((S)-1-Amino-5-guanidino-1-oxopentan-2-yl)amino)-4-oxo-1-phenylbutan-2-yl)carbamoyl)piperidin-1-yl)-4-(2-chloroacetamido)-5-oxopentanoic acid] (ClAc-E[Pip][β3hF]R-NH2), the Ki (read-out: Ki, μM (FP Assay)) was above 10 µM.
Same read-out and setting: as for `C=CC(=O)N[C@@H](CCC(=O)O)C(=O)N1CCCC[C@H]1C(=O)N[C@@H](Cc1ccc2ccccc2c1)C(=O)N[C@@H](CCCNC(=N)N)C(N)=O` [Compound 2b-16, (S)-4-Acrylamido-5-((S)-2-(((S)-1-(((S)-1-amino-5-guanidino-1-oxopentan-2-yl)amino)-3-(naphthalen-2-yl)-1-oxopropan-2-yl)carbamoyl)piperidin-1-yl)-5-oxopentanoic acid] (Acryloyl-E[Pip][2Nal]R-NH2), the figure is above 10 µM; as for `C[C@H](NC(=O)[C@H](C)NC(=O)[C@H](CCCNC(N)=O)NC(=O)[C@H](Cc1c[nH]c2ccccc12)NC(=O)[C@@H]1CCCCN1C(=O)[C@H](CCC(=O)O)NC(=O)CCl)C(=O)N[C@@H](CCCCNC(=O)CCCCC[C@@H]1NC(=O)N[C@@H]1C)C(N)=O` [Compound 2c-1, (S)-5-((S)-2-(((2S,5S,8S,11S)-14-Carbamoyl-1-(1H-indol-3-yl)-8,11-dimethyl-25-((4S,5R)-5-methyl-2-oxoimidazolidin-4-yl)-3,6,9,12,20-pentaoxo-5-(3-ureidopropyl)-4,7,10,13,19-pentaazapentacosan-2-yl)carbamoyl)piperidin-1-yl)-4-(2-chloroacetamido)-5-oxopentanoic acid] (ClAc-E[Pip]W[Cit]AAK(X2)-NH2), 0.04 µM.
`C[C@H]1NC(=O)N[C@H]1CCCCCC(=O)NCCCC[C@H](NC(=O)[C@H](CCCNC(N)=O)NC(=O)[C@H](Cc1c[nH]c2ccccc12)NC(=O)[C@@H]1CCCCN1C(=O)[C@H](CCC(=O)O)NC(=O)CCl)C(N)=O` [Compound 2c-2, (S)-5-((S)-2-(((S)-1-(((S)-1-(((S)-1-Amino-6-(6-((4S,5R)-5-methyl-2-oxoimidazolidin-4-yl)hexanamido)-1-oxohexan-2-yl)amino)-1-oxo-5-ureidopentan-2-yl)amino)-3-(1H-indol-3-yl)-1-oxopropan-2-yl)carbamoyl)piperidin-1-yl)-4-(2-chloroacetamido)-5-oxopentanoic acid] (ClAc-E[Pip]W[Cit]K(X2)-NH2) returned a Ki (Ki, μM (FP Assay)) of 0.03 µM.
Take `COC(=O)CC[C@H](NC(=O)C1CO1)C(=O)N1CCCC[C@H]1C(=O)N[C@@H](Cc1c[nH]c2ccccc12)C(=O)N[C@@H](CCCNC(N)=O)C(N)=O` (stereo partly drawn) [Compound 3, Methyl (4S)-5-((S)-2-(((S)-1-(((S)-1-amino-1-oxo-5-ureidopentan-2-yl)amino)-3-(1H-indol-3-yl)-1-oxopropan-2-yl)carbamoyl)piperidin-1-yl)-4-(oxirane-2-carboxamido)-5-oxopentanoate] (X1-E(OMe)[Pip]W[Cit]-NH2): for the setting “read-out: Ki, μM (FP Assay)”, the Ki worked out at 4.17 µM.
As for `NC(=O)NCCC[C@H](NC(=O)[C@H](Cc1ccc2ccccc2c1)NC(=O)[C@@H]1CCCCN1C(=O)[C@H](CCC(=O)O)N1C(=O)C=CC1=O)C(N)=O` [Compound 5, (S)-5-((S)-2-(((S)-1-(((S)-1-Amino-1-oxo-5-ureidopentan-2-yl)amino)-3-(naphthalen-2-yl)-1-oxopropan-2-yl)carbamoyl)piperidin-1-yl)-4-(2,5-dioxo-2,5-dihydro-1H-pyrrol-1-yl)-5-oxopentanoic acid], the inhibitory constant (Ki) (read-out: Ki, μM (FP Assay)) was above 10 µM.
Same read-out and setting: the result for `NC(=O)NCCC[C@H](NC(=O)[C@H](Cc1ccc2ccccc2c1)NC(=O)[C@@H]1CCCCN1C(=O)C[C@H](CCC(=O)O)N1C(=O)C=CC1=O)C(N)=O` [Compound 5-1, (S)-6-((S)-2-(((S)-1-(((S)-1-Amino-1-oxo-5-ureidopentan-2-yl)amino)-3-(naphthalen-2-yl)-1-oxopropan-2-yl)carbamoyl)piperidin-1-yl)-4-(2,5-dioxo-2,5-dihydro-1H-pyrrol-1-yl)-6-oxohexanoic acid] reads 0.61 µM.
The compound `NC(=O)NCCC[C@H](NC(=O)[C@H](Cc1c[nH]c2ccccc12)NC(=O)[C@@H]1CCCCN1C(=O)[C@H](CCC(=O)O)NC(=O)CF)C(N)=O` [Compound 6b, (S)-5-((S)-2-(((S)-1-(((S)-1-Amino-1-oxo-5-ureidopentan-2-yl)amino)-3-(1H-indol-3-yl)-1-oxopropan-2-yl)carbamoyl)piperidin-1-yl)-4-(2-fluoroacetamido)-5-oxopentanoic acid] (Fluoroacetyl-E[Pip]W[Cit]-NH2) gave a Ki (Ki, μM (FP Assay)) above 10 µM.
`N=C(N)NCCC[C@H](NC(=O)[C@H](Cc1ccc2ccccc2c1)NC(=O)[C@@H]1CCCCN1C(=O)[C@H](CCC(=O)O)NC(=O)CF)C(N)=O` [Compound 6b-1, (S)-5-((S)-2-(((S)-1-(((S)-1-Amino-5-guanidino-1-oxopentan-2-yl)amino)-3-(naphthalen-2-yl)-1-oxopropan-2-yl)carbamoyl)piperidin-1-yl)-4-(2-fluoroacetamido)-5-oxopentanoic acid] (Fluoroacetyl-E[Pip][2Nal]R-NH2) returned a Ki (Ki, μM (FP Assay)) above 10 µM.
On the same count and under the same terms, the result for `COC(=O)CC[C@H](NC(=O)CCl)C(=O)N1CCCC[C@H]1C(=O)N[C@@H](Cc1c[nH]c2ccccc12)C(=O)N[C@@H](CCCNC(N)=O)C(=O)Nc1ccc2ccccc2c1` [Compound 11-8, Methyl (S)-5-((S)-2-(((S)-3-(1H-indol-3-yl)-1-(((S)-1-(naphthalen-2-ylamino)-1-oxo-5-ureidopentan-2-yl)amino)-1-oxopropan-2-yl)carbamoyl)piperidin-1-yl)-4-(2-chloroacetamido)-5-oxopentanoate] (ClAc-E(OMe)[Pip]W[Cit]-βNA) reads 0.15 µM.
Regarding `Cc1ccc(CN(C)C(=O)[C@H](CCCNC(N)=O)NC(=O)[C@H](Cc2c[nH]c3ccccc23)NC(=O)[C@@H]2CCCCN2C(=O)[C@H](CCC(=O)O)NC(=O)CCl)cc1` [Compound 11-9, (S)-5-((S)-2-(((S)-3-(1H-Indol-3-yl)-1-(((S)-1-(methyl(4-methylbenzyl)amino)-1-oxo-5-ureidopentan-2-yl)amino)-1-oxopropan-2-yl)carbamoyl)piperidin-1-yl)-4-(2-chloroacetamido)-5-oxopentanoic acid] (ClAc-E[Pip]W[Cit]-X5), under “read-out: Ki, μM (FP Assay)”, the Ki came out at 0.31 µM.
